Assay results from ChEMBL document CHEMBL1131286, “Design and synthesis of m1-selective muscarinic agonists: (R)-(-)-(Z)-1-Azabicyclo[2.2.1]heptan-3-one, O-(3-(3'-methoxyphenyl)-2-propynyl)oxime maleate (CI-1017), a functionally m1-selective muscarinic agonist” (J Med Chem, 1998).
Calls of active or inactive are those of the source. The calls are words filed in the database; no cut-off is given here.

Legend:
[1] = molecular target: T1, Muscarinic acetylcholine receptor M5 (Homo sapiens) (UniProt P08912); assay: Stimulations of inositol phosphate(PI) accumulation in transfected CHO cells in Muscarinic acetylcholine receptor M5 values are the maximal response obtained from the compound tested at 100 uM normalized to the effect of carbachol.; type: functional, cell-based
T1 sequence (whole entry): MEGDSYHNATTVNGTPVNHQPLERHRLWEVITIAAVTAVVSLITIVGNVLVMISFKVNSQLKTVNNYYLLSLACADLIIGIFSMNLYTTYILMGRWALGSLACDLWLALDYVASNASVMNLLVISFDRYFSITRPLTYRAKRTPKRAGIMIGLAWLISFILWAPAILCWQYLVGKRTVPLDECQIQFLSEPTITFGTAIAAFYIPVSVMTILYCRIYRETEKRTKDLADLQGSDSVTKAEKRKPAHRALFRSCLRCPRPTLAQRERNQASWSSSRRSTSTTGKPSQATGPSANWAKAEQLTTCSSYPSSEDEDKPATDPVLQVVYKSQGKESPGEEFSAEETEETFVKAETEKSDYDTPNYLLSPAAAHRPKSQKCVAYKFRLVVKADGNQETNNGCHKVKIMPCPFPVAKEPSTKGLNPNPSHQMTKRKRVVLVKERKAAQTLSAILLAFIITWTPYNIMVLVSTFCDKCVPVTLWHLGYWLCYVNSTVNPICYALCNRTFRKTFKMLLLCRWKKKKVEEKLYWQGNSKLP

[2] = molecular target: T2, Muscarinic acetylcholine receptor M1 (Homo sapiens) (UniProt P11229); assay: Stimulations of inositol phosphate(PI) accumulation in transfected CHO cells in Muscarinic acetylcholine receptor M1 values are the maximal response obtained from the compound tested at 100 uM normalized to the effect of carbachol.; type: functional, cell-based
T2 sequence (whole entry): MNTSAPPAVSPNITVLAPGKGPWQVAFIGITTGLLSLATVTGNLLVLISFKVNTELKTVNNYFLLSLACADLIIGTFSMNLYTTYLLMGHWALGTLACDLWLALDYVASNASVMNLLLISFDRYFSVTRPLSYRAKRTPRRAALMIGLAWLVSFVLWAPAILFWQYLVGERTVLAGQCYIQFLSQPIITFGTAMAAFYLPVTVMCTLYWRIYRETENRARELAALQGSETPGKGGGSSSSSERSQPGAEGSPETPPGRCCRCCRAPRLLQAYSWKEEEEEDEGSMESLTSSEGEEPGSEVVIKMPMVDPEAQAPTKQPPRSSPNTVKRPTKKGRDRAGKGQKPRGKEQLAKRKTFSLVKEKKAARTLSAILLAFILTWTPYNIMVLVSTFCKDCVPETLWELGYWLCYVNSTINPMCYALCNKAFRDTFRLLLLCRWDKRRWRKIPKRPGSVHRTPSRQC

[3] = molecular target: Muscarinic acetylcholine receptor M3 (Homo sapiens) (UniProt P20309); assay: Stimulations of inositol phosphate(PI) accumulation in transfected CHO cells in Muscarinic acetylcholine receptor M3 values are the maximal response obtained from the compound tested at 100 uM normalized to the effect of carbachol.; type: functional, cell-based
Chain of Muscarinic acetylcholine receptor M3 (Homo sapiens) (P20309 whole entry, looked up): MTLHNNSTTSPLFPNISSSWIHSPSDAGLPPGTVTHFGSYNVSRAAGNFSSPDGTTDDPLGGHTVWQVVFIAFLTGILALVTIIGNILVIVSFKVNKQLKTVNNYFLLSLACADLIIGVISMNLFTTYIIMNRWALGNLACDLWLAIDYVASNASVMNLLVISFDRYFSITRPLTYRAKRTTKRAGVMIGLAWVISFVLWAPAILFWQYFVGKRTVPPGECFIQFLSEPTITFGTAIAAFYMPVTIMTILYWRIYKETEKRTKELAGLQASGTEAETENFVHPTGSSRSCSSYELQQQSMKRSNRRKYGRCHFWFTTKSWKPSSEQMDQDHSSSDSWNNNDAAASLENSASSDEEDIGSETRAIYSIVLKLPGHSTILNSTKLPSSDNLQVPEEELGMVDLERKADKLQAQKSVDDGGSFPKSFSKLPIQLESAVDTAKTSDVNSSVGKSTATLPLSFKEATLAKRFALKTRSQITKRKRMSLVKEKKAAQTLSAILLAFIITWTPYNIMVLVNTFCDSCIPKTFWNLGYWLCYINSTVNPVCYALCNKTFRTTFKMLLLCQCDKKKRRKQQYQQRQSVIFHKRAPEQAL

[4] = molecular target: T3, Muscarinic acetylcholine receptor M2 (Homo sapiens) (UniProt P08172); assay: Reversal of forskolin-stimulated accumulation of […] in transfected CHO cells, against Muscarinic acetylcholine receptor M2; Not active up to 1 mM; type: functional, cell-based
T3 sequence (whole entry): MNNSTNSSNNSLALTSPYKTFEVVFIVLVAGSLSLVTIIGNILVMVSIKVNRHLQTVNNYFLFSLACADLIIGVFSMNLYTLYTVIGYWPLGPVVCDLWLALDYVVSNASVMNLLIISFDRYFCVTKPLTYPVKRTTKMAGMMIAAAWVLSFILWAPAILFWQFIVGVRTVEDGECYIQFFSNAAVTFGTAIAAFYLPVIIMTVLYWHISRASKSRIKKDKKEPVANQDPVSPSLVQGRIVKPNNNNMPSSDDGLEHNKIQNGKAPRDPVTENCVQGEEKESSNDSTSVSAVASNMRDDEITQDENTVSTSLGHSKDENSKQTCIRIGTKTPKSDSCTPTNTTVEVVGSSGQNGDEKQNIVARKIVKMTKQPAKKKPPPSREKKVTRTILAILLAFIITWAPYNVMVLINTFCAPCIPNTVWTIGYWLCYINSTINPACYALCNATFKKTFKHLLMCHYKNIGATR

[5] = molecular target: T4, Muscarinic acetylcholine receptor M4 (Homo sapiens) (UniProt P08173); assay: Reversal of forskolin-stimulated accumulation of […] in transfected CHO cells, against Muscarinic acetylcholine receptor M4; Not active; type: functional, cell-based
T4 sequence (whole entry): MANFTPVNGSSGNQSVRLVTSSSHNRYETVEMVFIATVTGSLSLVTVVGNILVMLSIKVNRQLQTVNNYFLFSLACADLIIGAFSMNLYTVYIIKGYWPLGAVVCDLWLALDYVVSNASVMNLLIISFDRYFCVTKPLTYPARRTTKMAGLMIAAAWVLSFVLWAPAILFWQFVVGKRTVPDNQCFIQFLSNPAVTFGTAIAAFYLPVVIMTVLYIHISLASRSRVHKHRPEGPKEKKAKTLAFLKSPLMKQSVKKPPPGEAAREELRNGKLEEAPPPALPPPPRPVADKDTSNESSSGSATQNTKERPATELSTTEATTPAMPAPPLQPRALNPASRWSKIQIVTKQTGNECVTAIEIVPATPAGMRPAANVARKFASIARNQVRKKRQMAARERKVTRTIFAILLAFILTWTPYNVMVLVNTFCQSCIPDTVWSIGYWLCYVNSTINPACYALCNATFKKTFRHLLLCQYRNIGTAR

[6] = molecular target: Muscarinic acetylcholine receptor (Rattus norvegicus) (UniProt P08482+P08483+P08485+P08911+P10980); assay: Ratio of QNB binding to CMD binding was evaluated; type: protein assay
[7] = molecular target: T5, Muscarinic acetylcholine receptor M2 (Homo sapiens, UniProt P08172); assay: Binding affinity of compound labeled by [3H]QNB in CHO cells selectively expressing human Muscarinic acetylcholine receptor M2; type: cell-based
T5 sequence (P08172 whole entry): T3 sequence (whole entry)

[8] = molecular target: Muscarinic acetylcholine receptor; assay: Muscarinic acetylcholine receptor binding assay was conducted using [3H]quinuclidinyl benzilate (QNB) to label antagonist sites in membrane preparations from rat neocortex
[9] = molecular target: T6, Muscarinic acetylcholine receptor M1 (Homo sapiens, UniProt P11229); assay: Binding affinity of compound labeled by [3H]QNB in CHO cells selectively expressing human Muscarinic acetylcholine receptor M1; type: cell-based
T6 sequence (P11229 whole entry): T2 sequence (whole entry)

[10] = molecular target: Muscarinic acetylcholine receptor; assay: Muscarinic acetylcholine receptor binding assay was conducted using [3H]cis-methyldioxolane (CMD) to label agonist sites in membrane preparations from rat neocortex
[11] = molecular target: T2, Muscarinic acetylcholine receptor M1 (Homo sapiens); conditions: CHO
[12] = molecular target: T3, Muscarinic acetylcholine receptor M2 (Homo sapiens); assay: Maximal response obtained for each drug normalized to effect of carbachol in Muscarinic acetylcholine receptor M2; type: functional
[13] = molecular target: T2, Muscarinic acetylcholine receptor M1 (Homo sapiens); assay: Maximal response obtained for each drug normalized to effect of carbachol in Muscarinic acetylcholine receptor M1; type: functional
[14] = molecular target: Muscarinic acetylcholine receptor M3 (Homo sapiens) (UniProt P20309); assay: Maximal response obtained for each drug normalized to effect of carbachol in Muscarinic acetylcholine receptor M3; type: functional
[15] = molecular target: T3, Muscarinic acetylcholine receptor M2 (Homo sapiens); assay: Amplification of transfected NIH3T3 cells was measured in Muscarinic acetylcholine receptor M2 required to produce half maximal effect; type: functional, cell-based
[16] = molecular target: Muscarinic acetylcholine receptor M3 (Homo sapiens) (UniProt P20309); conditions: NIH3T3
Description: Amplification of transfected NIH3T3 cells was measured in Muscarinic acetylcholine receptor M3 required to produce half maximal effect

[17] = molecular target: T4, Muscarinic acetylcholine receptor M4 (Homo sapiens); assay: Reversal of forskolin-stimulated accumulation of […] in transfected CHO cells, against Muscarinic acetylcholine receptor M4; type: functional, cell-based; conditions: concentration not given here
[18] = molecular target: T2, Muscarinic acetylcholine receptor M1 (Homo sapiens); conditions: NIH3T3
Description: Amplification of transfected NIH3T3 cells was measured in Muscarinic acetylcholine receptor M1 required to produce half maximal effect

[19] = molecular target: T4, Muscarinic acetylcholine receptor M4 (Homo sapiens); assay: Maximal response obtained for each drug normalized to effect of carbachol in Muscarinic acetylcholine receptor M4; type: functional
[20] = molecular target: T4, Muscarinic acetylcholine receptor M4 (Homo sapiens); assay: Amplification of transfected NIH3T3 cells was measured in Muscarinic acetylcholine receptor M4 required to produce half maximal effect; type: functional, cell-based
[21] = molecular target: T1, Muscarinic acetylcholine receptor M5 (Homo sapiens); assay: Amplification of transfected NIH3T3 cells was measured in Muscarinic acetylcholine receptor M5 required to produce half maximal effect; type: functional, cell-based
[22] = molecular target: T1, Muscarinic acetylcholine receptor M5 (Homo sapiens); assay: Maximal response obtained for each drug normalized to effect of carbachol in Muscarinic acetylcholine receptor M5; type: functional
[23] = molecular target: T1, Muscarinic acetylcholine receptor M5 (Homo sapiens); assay: Inositol phosphate(PI) accumulation in CHO cells expressing Muscarinic acetylcholine receptor M5 as maximal response at 100 uM relative to carbachol; type: functional, cell-based
[24] = molecular target: T2, Muscarinic acetylcholine receptor M1 (Homo sapiens); assay: Stimulations of inositol phosphate(PI) accumulation in transfected CHO cells in Muscarinic acetylcholine receptor M1 values are the maximal response obtained from the compound tested at 100 uM normalized to the effects of carbachol.; type: functional, cell-based
[25] = molecular target: T5, Muscarinic acetylcholine receptor M2; assay: Binding affinity of [3H]QNB to CHO cells expressing human Muscarinic acetylcholine receptor M2; type: cell-based
[26] = molecular target: Muscarinic acetylcholine receptor M3 (Homo sapiens) (UniProt P20309); assay: Inositol phosphate(PI) accumulation in CHO cells expressing Muscarinic acetylcholine receptor M3 as maximal response at 100 uM relative to carbachol; type: functional, cell-based
[27] = molecular target: T6, Muscarinic acetylcholine receptor M1; assay: biochemical; type: cell-based, CHO
Description: Binding affinity of [3H]-QNB to CHO cells expressing human Muscarinic acetylcholine receptor M1

[28] = molecular target: T2, Muscarinic acetylcholine receptor M1 (Homo sapiens); assay: Stimulation of inositol phosphate(PI) accumulation in CHO cells expressing Muscarinic acetylcholine receptor M1 as maximal response at 100 uM relative to carbachol; type: functional, cell-based
[29] = molecular target: T1, Muscarinic acetylcholine receptor M5 (Homo sapiens); assay: Stimulations of inositol phosphate(PI) accumulation in transfected CHO cells in Muscarinic acetylcholine receptor M5 values are the maximal response obtained from the compound tested at 100 uM normalized to the effects of carbachol.; type: functional, cell-based
[30] = molecular target: T4, Muscarinic acetylcholine receptor M4 (Homo sapiens); assay: Reversal of forskolin-stimulated accumulation of […] in transfected CHO cells, against Muscarinic acetylcholine receptor M4; NA=Not active up to 1 mM; type: functional, cell-based
[31] = molecular target: T1, Muscarinic acetylcholine receptor M5 (Homo sapiens); assay: Stimulations of inositol phosphate(PI) ccumulation in transfected CHO cells in Muscarinic acetylcholine receptor M5 values are the maximal response obtained from the compound tested at 100 uM normalized to the effect of carbachol.; type: functional, cell-based
[32] = molecular target: T3, Muscarinic acetylcholine receptor M2 (Homo sapiens); conditions: CHO
Description: Binding affinity expressed in IC50 labelled by [3H]QNB in CHO cells expressing human Muscarinic acetylcholine receptor M2

[33] = molecular target: T4, Muscarinic acetylcholine receptor M4 (Homo sapiens); conditions: NIH3T3
[34] = molecular target: T1, Muscarinic acetylcholine receptor M5 (Homo sapiens); conditions: CHO; 100 uM

C(#Cc1ccccc1)CO/N=C1\CN2CCC1C2 (configuration not stated)
Stimulations [1]: 1%
Stimulations [2]: 40%
Stimulations [3]: 8%
ED50 [4]: inactive
ED50 [5]: inactive
Ratio [6]: 108

CC(C)=CCO/N=C1\CN2CCC1C2 (configuration not stated)
IC50 [7]: 0.519 µM
IC50 [8]: 1.27 µM
Ratio [6]: 179
IC50 [9]: 0.216 µM
IC50 [10]: 0.00708 µM

COc1cccc(C#CCO/N=C2\CN3CC[C@@H]2C3)c1
Stimulation [1]: 12.3%
ED50 [11]: 1 µM
CCh [12]: 92%
CCh [13]: 41%
CCh [14]: 87%
ED50 [15]: 1.28 µM
ED50 [16]: 0.865 µM
Stimulation [3]: 10.4%
inhibition [17]: 1.6%
ED50 [4]: inactive
ED50 [18]: 0.042 µM
CCh [19]: 72%
ED50 [20]: 0.051 µM
ED50 [21]: 0.868 µM
CCh [22]: 104%

Clc1cccc(C#CCO/N=C2\CN3CCC2C3)c1 (configuration not stated)
CCh [23]: 3%
CCh [24]: 41%
IC50 [25]: 20.6 µM
CCh [26]: 4%
Ratio [6]: 203
IC50 [27]: 3.34 µM

COc1cccc(C#CCO/N=C2\CN3CCC2C3)c1 (configuration not stated)
CCh [12]: 81%
CCh [13]: 30%
CCh [14]: 93%
ED50 [15]: 1.32 µM
ED50 [16]: 3.86 µM
ED50 [4]: inactive
ED50 [18]: 0.042 µM
IC50 [25]: 52 µM
CCh [26]: 6%
CCh [19]: 68%
CCh [28]: 82%
Ratio [6]: 250
ED50 [20]: 0.093 µM
IC50 [27]: 7.68 µM
CCh [29]: 11%
ED50 [21]: 5.99 µM
CCh [22]: 103%
ED50 [30]: inactive

COc1ccc(C#CCO/N=C2\CN3CCC2C3)cc1 (configuration not stated)
CCh [31]: 3%
IC50 [25]: 84.4 µM
CCh [26]: 2%
CCh [28]: 89%
Ratio [6]: 119
IC50 [27]: 10.6 µM

C[N+](C)(C)CCOC(N)=O
Stimulation [1]: 100%
inhibition [17]: 6.3%
ED50 [32]: 0.27 µM
ED50 [33]: 0.1 µM
ED50 [34]: 2.7 µM
ED50 [21]: 1.4 µM
